{
  "source": "patent US20250064941A1",
  "about": "“SIGLEC LIGANDS, CONJUGATES, AND METHODS OF USE THEREOF” (Osprey Biopharmaceuticals, Inc., priority 2023, published 2025)",
  "key": {"[1]": {"target": "T1, human Siglec-2/CD22 protein (Homo sapiens, UniProt P20273)", "T1 construct": "purchased Acro Biosystems SI2-H82E3", "T1 sequence (P20273 20-847)": "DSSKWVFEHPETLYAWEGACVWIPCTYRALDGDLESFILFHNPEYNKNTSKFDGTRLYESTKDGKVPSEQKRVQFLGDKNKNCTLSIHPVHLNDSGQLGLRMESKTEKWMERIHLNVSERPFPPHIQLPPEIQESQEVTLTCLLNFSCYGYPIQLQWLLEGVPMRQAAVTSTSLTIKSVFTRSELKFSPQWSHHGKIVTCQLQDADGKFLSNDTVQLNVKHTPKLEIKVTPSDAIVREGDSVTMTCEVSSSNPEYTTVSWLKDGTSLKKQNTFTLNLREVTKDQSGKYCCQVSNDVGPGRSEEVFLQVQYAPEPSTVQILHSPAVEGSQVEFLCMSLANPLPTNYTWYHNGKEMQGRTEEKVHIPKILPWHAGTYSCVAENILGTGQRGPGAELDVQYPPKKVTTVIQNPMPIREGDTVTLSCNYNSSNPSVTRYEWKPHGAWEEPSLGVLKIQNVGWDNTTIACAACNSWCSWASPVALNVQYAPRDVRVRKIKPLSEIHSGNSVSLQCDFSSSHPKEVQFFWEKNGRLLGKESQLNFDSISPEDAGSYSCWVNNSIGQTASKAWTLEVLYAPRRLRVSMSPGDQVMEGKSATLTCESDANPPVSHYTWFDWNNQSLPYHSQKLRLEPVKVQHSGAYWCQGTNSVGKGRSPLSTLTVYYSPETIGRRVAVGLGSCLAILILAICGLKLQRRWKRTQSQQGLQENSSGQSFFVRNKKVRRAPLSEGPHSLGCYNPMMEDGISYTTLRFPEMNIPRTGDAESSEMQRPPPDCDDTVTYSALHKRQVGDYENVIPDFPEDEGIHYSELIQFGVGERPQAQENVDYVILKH", "experiment": "SPR binding affinity to human CD22", "details": "steady-state analysis", "summary_of_the_method": "(§1)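 Biotinylated CD22 desialylated with SialoExo (4 h, 37° C) before capture on streptavidin chip. Running buffer 10 mM HEPES, 150 mM NaCl, 0.05% Tween-20, pH 7.5, 1% DMSO, with DMSO solvent correction; 120 s dissociation. Compound affinities from steady-state analysis.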"}, "[2]": {"target": "cynomolgus Siglec-2/CD22 (Macaca fascicularis, UniProt A0A2K5WCZ6)", "sequence (A0A2K5WCZ6 entry or part of it)": "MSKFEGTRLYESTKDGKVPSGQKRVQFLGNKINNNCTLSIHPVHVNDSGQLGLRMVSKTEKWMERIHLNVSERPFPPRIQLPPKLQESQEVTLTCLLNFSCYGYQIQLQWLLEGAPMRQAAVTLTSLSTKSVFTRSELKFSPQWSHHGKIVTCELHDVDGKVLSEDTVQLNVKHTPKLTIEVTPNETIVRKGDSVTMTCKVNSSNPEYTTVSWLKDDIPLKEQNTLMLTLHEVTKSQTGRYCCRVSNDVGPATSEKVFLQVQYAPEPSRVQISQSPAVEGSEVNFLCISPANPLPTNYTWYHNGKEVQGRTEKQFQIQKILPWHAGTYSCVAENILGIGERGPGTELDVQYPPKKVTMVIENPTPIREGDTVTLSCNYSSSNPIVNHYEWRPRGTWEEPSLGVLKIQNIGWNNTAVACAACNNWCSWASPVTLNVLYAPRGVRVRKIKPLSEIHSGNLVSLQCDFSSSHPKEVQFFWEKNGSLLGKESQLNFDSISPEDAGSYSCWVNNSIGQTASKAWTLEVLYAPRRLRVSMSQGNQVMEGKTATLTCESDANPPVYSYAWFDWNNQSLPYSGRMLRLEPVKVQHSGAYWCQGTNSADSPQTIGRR", "experiment": "biochemical", "assay_type": "binding", "details": "SPR, steady-state analysis; read-out: Affinity cyno CD22", "summary_of_the_method": "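Compound binding measured by steady-state SPR analysis, 120 s dissociation, in HEPES-NaCl-Tween buffer pH 7.5 containing 1% DMSO, DMSO solvent-corrected. Surface: cyno CD22, sialic acids first stripped by SialoExo for 4 h at 37° C., then amine-coupled onto CM5.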"}, "[3]": {"target": "T2, mouse Siglec-2-Fc-Avi (CD22) (Mus musculus, UniProt P35329)", "T2 construct": "made in house", "T2 sequence (P35329 22-708 limits assumed)": "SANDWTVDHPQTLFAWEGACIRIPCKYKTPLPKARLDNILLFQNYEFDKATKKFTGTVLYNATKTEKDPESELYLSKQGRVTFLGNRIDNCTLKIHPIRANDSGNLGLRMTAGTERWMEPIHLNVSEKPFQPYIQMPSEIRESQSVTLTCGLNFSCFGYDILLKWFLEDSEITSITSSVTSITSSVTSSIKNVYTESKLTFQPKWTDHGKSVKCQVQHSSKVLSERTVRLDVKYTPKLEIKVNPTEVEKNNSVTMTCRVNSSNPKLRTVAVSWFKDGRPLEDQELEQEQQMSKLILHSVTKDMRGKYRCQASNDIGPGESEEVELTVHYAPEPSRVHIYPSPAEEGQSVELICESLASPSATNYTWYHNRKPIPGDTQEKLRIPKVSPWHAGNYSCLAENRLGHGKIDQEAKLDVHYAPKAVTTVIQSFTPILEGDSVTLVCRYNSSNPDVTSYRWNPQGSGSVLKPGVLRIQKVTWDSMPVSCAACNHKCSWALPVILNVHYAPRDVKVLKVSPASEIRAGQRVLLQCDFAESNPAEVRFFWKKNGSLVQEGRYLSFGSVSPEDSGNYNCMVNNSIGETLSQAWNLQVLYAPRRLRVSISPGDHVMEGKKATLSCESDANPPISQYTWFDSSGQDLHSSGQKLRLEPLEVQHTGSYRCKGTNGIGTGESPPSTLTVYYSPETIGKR", "experiment": "SPR binding affinity to mouse CD22", "details": "steady-state analysis", "summary_of_the_method": "as §1"}},
  "data": [
    {"molecule": "C#CCCOc1ccc(CO[C@]2(C(=O)O)C[C@H](O)[C@@H](NC(=O)CO)[C@H]([C@H](O)[C@H](O)CNC(=O)Cc3ccc(N4CCC(NC(C)=O)CC4)cc3)O2)cc1", "note": "[Compound 137, (2R,4S,5R,6R)-6-((1R,2R)-3-(2-(4-(4-acetamidopiperidin-1-yl)phenyl)acetamido)-1,2-dihydroxypropyl)-2-((4-(but-3-yn-1-yloxy)benzyl)oxy)-4-hydroxy-5-(2-hydroxyacetamido)tetrahydro-2H-pyran-2-carboxylic acid]", "values": [
      {"measurement": "Kd", "setting": "[1]", "result": "> 10", "unit": "µM"},
      {"measurement": "Kd", "setting": "[2]", "result": "1 to 10", "unit": "µM"},
      {"measurement": "Kd", "setting": "[3]", "result": "> 10", "unit": "µM"}
    ]},
    {"molecule": "C#CCCOc1ccc(CO[C@]2(C(=O)O)C[C@H](O)[C@@H](NC(=O)CO)[C@H]([C@H](O)[C@H](O)CNC(=O)Cc3ccccc3N3CCOCC3)O2)cc1", "note": "[Compound 138, (2R,4S,5R,6R)-2-((4-(but-3-yn-1-yloxy)benzyl)oxy)-6-((1R,2R)-1,2-dihydroxy-3-(2-(2-morpholinophenyl)acetamido)propyl)-4-hydroxy-5-(2-hydroxyacetamido)tetrahydro-2H-pyran-2-carboxylic acid]", "values": [
      {"measurement": "Kd", "setting": "[1]", "result": "1 to 10", "unit": "µM"},
      {"measurement": "Kd", "setting": "[2]", "result": "< 1", "unit": "µM"},
      {"measurement": "Kd", "setting": "[3]", "result": "1 to 10", "unit": "µM"}
    ]},
    {"molecule": "C#CCCOc1ccc(CO[C@]2(C(=O)O)C[C@H](O)[C@@H](NC(=O)CO)[C@H]([C@H](O)[C@H](O)CNC(=O)Cc3cccc(N4CCOCC4)c3)O2)cc1", "note": "[Compound 140, (2R,4S,5R,6R)-2-((4-(but-3-yn-1-yloxy)benzyl)oxy)-6-((1R,2R)-1,2-dihydroxy-3-(2-(3-morpholinophenyl)acetamido)propyl)-4-hydroxy-5-(2-hydroxyacetamido)tetrahydro-2H-pyran-2-carboxylic acid]", "values": [
      {"measurement": "Kd", "setting": "[1]", "result": "1 to 10", "unit": "µM"},
      {"measurement": "Kd", "setting": "[2]", "result": "1 to 10", "unit": "µM"},
      {"measurement": "Kd", "setting": "[3]", "result": "1 to 10", "unit": "µM"}
    ]},
    {"molecule": "C#CCCCCCCS[C@]1(C(=O)O)C[C@H](O)[C@@H](NC(=O)CO)[C@H]([C@H](O)[C@H](O)CNC(=O)Cc2cccc(O)c2)O1", "note": "[Compound 141, (2S,4S,5R,6R)-6-((1R,2R)-1,2-dihydroxy-3-(2-(3-hydroxyphenyl)acetamido)propyl)-4-hydroxy-5-(2-hydroxyacetamido)-2-(oct-7-yn-1-ylthio)tetrahydro-2H-pyran-2-carboxylic acid]", "values": [
      {"measurement": "Kd", "setting": "[1]", "result": "< 1", "unit": "µM"},
      {"measurement": "Kd", "setting": "[2]", "result": "1 to 10", "unit": "µM"},
      {"measurement": "Kd", "setting": "[3]", "result": "< 1", "unit": "µM"}
    ]},
    {"molecule": "C#Cc1ccc(CO[C@]2(C(=O)O)C[C@H](O)[C@@H](NC(=O)CO)[C@H]([C@H](O)[C@H](O)CNC(=O)Cc3cccc(O)c3)O2)cc1", "note": "[Compound 142, (2R,4S,5R,6R)-6-((1R,2R)-1,2-dihydroxy-3-(2-(3-hydroxyphenyl)acetamido)propyl)-2-((4-ethynylbenzyl)oxy)-4-hydroxy-5-(2-hydroxyacetamido)tetrahydro-2H-pyran-2-carboxylic acid]", "values": [
      {"measurement": "Kd", "setting": "[1]", "result": "< 1", "unit": "µM"},
      {"measurement": "Kd", "setting": "[2]", "result": "< 1", "unit": "µM"},
      {"measurement": "Kd", "setting": "[3]", "result": "< 1", "unit": "µM"}
    ]},
    {"molecule": "O=C(O)CCCCCCO[C@]1(C(=O)O)C[C@H](O)[C@@H](NC(=O)CO)[C@H]([C@H](O)[C@H](O)CNC(=O)Cc2cccc(O)c2)O1", "note": "[Compound 143, (2R,4S,5R,6R)-2-((6-carboxyhexyl)oxy)-6-((1R,2R)-1,2-dihydroxy-3-(2-(3-hydroxyphenyl)acetamido)propyl)-4-hydroxy-5-(2-hydroxyacetamido)tetrahydro-2H-pyran-2-carboxylic acid]", "values": [
      {"measurement": "Kd", "setting": "[1]", "result": "< 1", "unit": "µM"},
      {"measurement": "Kd", "setting": "[2]", "result": "< 1", "unit": "µM"},
      {"measurement": "Kd", "setting": "[3]", "result": "1 to 10", "unit": "µM"}
    ]},
    {"molecule": "C#CCOCCCCCCO[C@]1(C(=O)O)C[C@H](O)[C@@H](NC(=O)CO)[C@H]([C@H](O)[C@H](O)CNC(=O)Cc2cccc(O)c2)O1", "note": "[Compound 144, (2R,4S,5R,6R)-6-((1R,2R)-1,2-dihydroxy-3-(2-(3-hydroxyphenyl)acetamido)propyl)-4-hydroxy-5-(2-hydroxyacetamido)-2-((6-(prop-2-yn-1-yloxy)hexyl)oxy)tetrahydro-2H-pyran-2-carboxylic acid]", "values": [
      {"measurement": "Kd", "setting": "[1]", "result": "1 to 10", "unit": "µM"},
      {"measurement": "Kd", "setting": "[2]", "result": "< 1", "unit": "µM"},
      {"measurement": "Kd", "setting": "[3]", "result": "1 to 10", "unit": "µM"}
    ]}
  ]
}
